Assay type in all cases: physicochemical
Data set [1] is described as follows: Stability of crystalline SkQ1 chloride and iodide compared with SkQ1 bromide. Conditions: crystals obtained by the same crystallization methods. The source says:
Purity and stability parameters of obtained SkQ1 Cl and SkQ I were similar to such parameters of SkQ1 bromide.

Data set [2] is described as follows: Solubility in water and in protic solvents (observations during crystallization work). The protocol: Attempts to reduce the concentration of ethanol and to use isopropanol were undertaken. SkQ1 bromide in an amount of 177 mg was added to an ethanol (1V)-ethyl acetate (5V) mixture. In another experiment, SkQ1 in an amount of 178 mg was added to an isopropanol (1V)-ethyl acetate (5V) mixture. […] To each of the above solutions, 5V ml of MTBE was added, initially oiling out the supersaturated solution. After leaving the solution overnight at room temperature, crystals were formed. This process with varying amounts of ethanol (from 0.274-0.574 V) led to similar results of solid formation after MTBE addition. Similarly, ethyl acetate was increased to 10V, with similar results of fine solid formation only after adding MTBE, but with lower yields. When ethanol solvent amounts were increased ton 1.174 V, crystallization occurred after adding MTBE, but yields were low.

Data set [3] can be described thus: Hygroscopicity of the isolated solid. As to conditions: non-crystalline solid as isolated. The source says:
Hygroscopic solids are associated with numerous difficulties when attempting to use them in pharmaceutical compositions, including low stability and difficulty in handling. Crystallization of halide salts of SkQ1 by using a number of solvents, individually or in combination, was attempted.

Data set [4] can be described thus: Resistance to gamma radiation (sterilization). Conditions: sterilization by gamma radiation.
A short description of data set [5]: Photodegradation of solid SkQ1 bromide under natural day/night illumination. The protocol: As a result, SkQ1 was stored in light protective packaging or a dark glass container. The crystalline form of SkQ1 bromide as prepared in Example 2C and was tested by placing 50 mg portions at room temperature in transparent plastic vials, under conditions of natural change of day and night illumination with indirect sunlight.

`CC1=C(C)C(=O)C(CCCCCCCCCC[P+](c2ccccc2)(c2ccccc2)c2ccccc2)=CC1=O` [SkQ1 Cl]: the “stability parameters relative to SkQ1 bromide” value in data set [1] is on record as “similar”.
Regarding `CC1=C(C)C(=O)C(CCCCCCCCCC[P+](c2ccccc2)(c2ccccc2)c2ccccc2)=CC1=O` [SkQ1 bromide, 2,3-dimethyl-1,4-benzoquinone-5-decyl-triphenylphosphonium bromide], in data set [2] (ethanol (1V)- or isopropanol (1V)-ethyl acetate (5V) mixture, room temperature, 0.5 hours), the “solubility in protic solvents” value was “highly soluble”. Also, the solubility in water entry in data set [2] (water) is “sparingly soluble”. The hygroscopicity entry in data set [3] is reported as “hygroscopic”; in data set [3] (listed as SkQ1 bromide salt), “highly hygroscopic”.
`CC1=C(C)C(=O)C(CCCCCCCCCC[P+](c2ccccc2)(c2ccccc2)c2ccccc2)=CC1=O` [crystalline form of SkQ1 bromide, 2,3-dimethyl-1,4-benzoquinone-5-decyl-triphenylphosphonium bromide]: in data set [4] (listed as crystalline SkQ1), the “stability to gamma radiation” value is listed as “resistant to gamma radiation”. The sample photodegradation result in data set [5] (50 mg portions, room temperature, transparent plastic vials, natural day and night illumination with indirect sunlight, analyzed at 6 hours, 4 days, 1 month and 2 months) is “no degradation was found in any of the samples”. Moreover, the “resistance to degradation, in particular photodegradation, compared to the previously known amorphous form” value in data set [5] (crystalline versus amorphous form) is given as “more resistant to degradation”.
As to `CC1=C(C)C(=O)C(CCCCCCCCCC[P+](c2ccccc2)(c2ccccc2)c2ccccc2)=CC1=O` [Amorphous SkQ1 bromide, 2,3-dimethyl-1,4-benzoquinone-5-decyl-triphenylphosphonium bromide, reference compound], in data set [4] (listed as oil form), the “stability to gamma radiation” value is “degraded”. Also, the photosensitivity entry in data set [5] (amorphous form, stored in light protective packaging or dark glass container) is on record as “photosensitive”.

For the origin of these results see patent US20260217746A1, “CRYSTALLINE FORMS OF ANTIOXIDANT COMPOUND” (Mitotech Ltd, priority 2023, published 2026).
